What was measured:
[1] = target: T1, Thymidylate kinase (Mycobacterium tuberculosis) (UniProt P9WKE1); experiment: (§1) Kinetic parameter Vm of thymidine monophosphate kinase (TMPKmt) in Mycobacterium tuberculosis was determined; format: functional
T1 sequence (whole entry): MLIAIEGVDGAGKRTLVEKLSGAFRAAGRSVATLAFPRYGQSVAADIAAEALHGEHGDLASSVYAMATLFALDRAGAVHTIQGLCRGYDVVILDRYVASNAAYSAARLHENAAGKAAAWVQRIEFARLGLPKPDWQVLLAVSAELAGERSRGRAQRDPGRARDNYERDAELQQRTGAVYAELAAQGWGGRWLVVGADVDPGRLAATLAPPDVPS

[2] = target: T1, Thymidylate kinase (Mycobacterium tuberculosis); experiment: as §1

SMILES	Vm [1]	Vm [2]
O=c1ccn([C@H]2C[C@H](O)[C@@H](COP(=O)(O)O)O2)c(=O)[nH]1	3.5 µM/min/mg	
Cc1cn([C@H]2C[C@H](O)[C@@H](COP(=O)(O)O)O2)c(=O)[nH]c1=O		10.6 µM/min/mg
O=c1[nH]c(=O)n([C@H]2C[C@H](O)[C@@H](COP(=O)(O)O)O2)cc1Br	9.8 µM/min/mg	
O=c1[nH]c(=O)n([C@H]2C[C@H](O)[C@@H](COP(=O)(O)O)O2)cc1I	7.5 µM/min/mg	
O=c1[nH]c(=O)n([C@H]2C[C@H](O)[C@@H](COP(=O)(O)O)O2)cc1F	4.7 µM/min/mg	

Source: ChEMBL document CHEMBL1136204, “Thymidine and thymidine-5'-O-monophosphate analogues as inhibitors of Mycobacterium tuberculosis thymidylate kinase” (Bioorg Med Chem Lett, 2003)
